Data as given in paper PMC10384862, “[^212Pb]Pb-eSOMA-01: A Promising Radioligand for Targeted Alpha Therapy of Neuroendocrine Tumors” (Pharmaceuticals, 2023).
Like-named read-outs stand apart in the source and are kept apart here.

What was measured:
[1] = LogD7.4 by shake-flask method (n-octanol/PBS); type: physicochemical; settings: ^203Pb-labeled compound; n-octanol/PBS pH 7.4; n = 3
Description: Distribution coefficients (LogD7.4) were determined by the shake-flask method. A sample containing the ^203Pb-labeled compound (~1 MBq) was added to a vial containing PBS (600 µL, pH 7.4) and n-octanol (600 µL). The vial was vortexed vigorously and then centrifuged at 10,000 rpm for 10 min for phase separation. Samples (100 µL) of the n-octanol and aqueous phases were taken and measured by a gamma counter. The LogD7.4 value was calculated by using the equation: LogD7.4 = log [(counts in the n-octanol phase)/(counts in the aqueous phase)]. Measurements were performed in triplicate.

AR42J tumors = settings: in vivo, cited from earlier work
[2] = In vitro stability in PBS; type: physicochemical; settings: phosphate buffered saline, pH 7.4; ^203Pb-labeled; 24 h; 37 °C; n = 1; read-out: Stability in PBS, intact labeled ligand
Description: The ^203Pb-labeled compounds (~ 2 MBq) or the ^212Pb-labeled compounds (~ 70 kBq) were incubated in 300 µL of phosphate buffered saline (PBS; 0.1 M, pH 7.4) or mouse serum at 37 °C. The stability of the radiolabeled peptides was monitored at 1, 4, and 24 h post-incubation. The samples in PBS were directly analyzed by radio-HPLC without any pretreatment. However, samples of mouse serum were mixed with an equal volume of acetonitrile to precipitate the proteins. The solution was centrifuged twice for 5 min at 13,000 rpm, and the supernatant was analyzed by radio-HPLC using Method 1 for lead-203 and Method 2 for lead-212.

[3] = Ex vivo biodistribution with lead-203; type: in vivo, mouse; settings: mouse, 24 h post-injection
Description: (§1) Six-week-old male Balb/c nu/nu-specific and opportunistic pathogen-tree (SOPF) mice (Janvier Labs, Le Genest-Saint-Isle, France) were housed in individually ventilated cages, with four mice per cage. Upon arrival, the mice were acclimated for 1 week with access to food and water ad libitum. Mice were subcutaneously inoculated on the right shoulder with NCI-H69 cells (5 × 10^6 cells suspended in 100 μL of 1/3 Matrigel (Corning Inc.; Corning, NY, USA) and 2/3 Hank’s balanced salt solution (Gibco; Paisley, UK). NCI-H69 xenografts were allowed to grow for 3 weeks. Tumor sizes were 391 ± 173 mm^3 at the start of the studies.
(§2) To determine the biodistribution of the compounds after imaging (1, 4, and 24 h p.i.), blood was collected via retro-orbital puncture under isoflurane/O2 anesthesia, after which the mice were sacrificed via cervical dislocation. The tumor and organs of interest (heart, lungs, liver, spleen, stomach, large intestine, small intestine, pancreas, kidneys, muscle, skin, and bone) were excised, washed in PBS, blotted dry, and collected into tubes. The blood, tumor, and relevant organs were weighed and measured with a gamma counter. The percentage of injected dose per gram (% ID/g) was determined for each tissue sample and corrected for both the injected volume and the % ID present at the injection site (the tail).

[4] = SPECT/CT imaging with 203Pb-labeled ligands; type: in vivo; settings: mouse; for tissue uptake per volume / tissue uptake per volume at 1 h / tissue uptake per volume at 24 h: male, Balb/c nu/nu, tumor, iv, 0.5 nmol, total radioactivity, read-out: Tumor uptake from SPECT images; for tissue uptake per volume: 1, 4 and 24 h after administration, n = 4; for tissue uptake per volume at 1 h: 1 h post-injection; for tissue uptake per volume at 24 h: 24 h post-injection; for half-life: kidneys, intravenous, ^203Pb-labeled, H69 tumor-bearing mice, read-out: Renal clearance half-life (converted)
Description: SPECT/CT imaging was performed in H69-xenografted Balb/c nu/nu mice at 1, 4, and 24 h after the administration of [^203Pb]Pb-eSOMA-01 or [^203Pb]Pb-eSOMA-02. Tumors were visible by SPECT/CT for both radioligands (Figure 3A,B). […] They increased over time for [^203Pb]Pb-eSOMA-01 (0.5 ± 0.03 at 4 h to 0.70 ± 0.11 at 24 h), while they remained nearly constant for [^203Pb]Pb-eSOMA-02 (0.30 ± 0.09 at 4 h and 0.4 ± 0.03 at 24 h).
as §1
Mice (n = 4 per compound) were intravenously injected in the tail vein with 100 μL of [^203Pb]Pb-eSOMA-01 (12.31 ± 1.44 MBq, 0.5 nmol) or [^203Pb]Pb-eSOMA-02 (13.06 ± 1.44 MBq, 0.5 nmol) containing Kolliphor HS 15 (Merck; Haarlerbergweg, The Netherlands) in PBS (0.06 mg/mL). At 1, 4, and 24 h post-injection (p.i.), mice were imaged in a prone position on a heated bed under 2% isoflurane/O2 anesthesia in a dedicated small-animal PET/SPECT/CT VECTOR5 scanner (MILabs B.V.; Utrecht, The Netherlands) with a high-sensitivity pinhole collimator (HE-GP-M, 1.6 mm pinholes). Whole-body SPECT images were acquired over one frame of 20 min (for 1 and 4 h time points) and two frames of 20 min (for 24 h time points) using a spiral scan in normal scan mode, in list-mode acquisition. This was followed by a whole-body normal CT scan (angle step 0.75 degrees, 50 kV tube voltage, 0.21 mA tube current). Reconstruction of the SPECT images was performed using the similarity-regulated SROSEM method (MILabs Rec 11.00 software), performing five iterations with a voxel size of 0.4 mm, using 72 keV ± 30% and 280 keV ± 8% energy windows for lead-203. Reconstructed volumes of SPECT scans were post-filtered with an isotropic three-dimensional Gaussian filter of 1 mm full width at half-maximum. Image processing and analyses of the reconstructed data were performed using the PMOD image analysis software version 3.9 (PMOD Technologies; Zurich, Switzerland) to calculate the percentage of injected dose per mL (% ID/mL). An Eppendorf tube filled with a solution of lead-203 of known activity was measured to determine the calibration factor.

H69 tumor bearing mice = assay: Ex vivo biodistribution with lead-203; type: in vivo, mouse; settings: after 4 h (so in the source); p < 0.05
Description: as §1, §2

[5] = blood, n = 4, read-out: Blood uptake
[6] = bone, n = 4, read-out: Bones uptake
[7] = heart, n = 4, read-out: Heart uptake
[8] = kidneys, n = 4, read-out: Kidneys uptake
[9] = large intestine, n = 4, read-out: Large Intestine uptake
[10] = liver, n = 4, read-out: Liver uptake
[11] = lungs, n = 4, read-out: Lungs uptake
[12] = muscle, n = 4, read-out: Muscle uptake
[13] = non-target organs other than kidneys, intravenous, organs other than kidneys, read-out: Uptakes in all the other non-target organs
[14] = pancreas, n = 4, read-out: Pancreas uptake
[15] = skin, n = 4, read-out: Skin uptake
[16] = small intestine, n = 4, read-out: Small Intestine uptake
[17] = spleen, n = 4, read-out: Spleen uptake
[18] = stomach, n = 4, read-out: Stomach uptake
[19] = tumor, n = 4, read-out: Tumor uptake

| Compound | logD [1] | remaining at 24 h [2] | tissue uptake at 24 h [3, 5] | tissue uptake at 24 h [3, 6] | tissue uptake at 24 h [3, 7] | tissue uptake at 24 h [3, 8] | tissue uptake at 24 h [3, 9] | tissue uptake at 24 h [3, 10] | tissue uptake at 24 h [3, 11] | tissue uptake at 24 h [3, 12] | tissue uptake at 24 h [3, 13] | tissue uptake at 24 h [3, 14] | tissue uptake at 24 h [3, 15] | tissue uptake at 24 h [3, 16] | tissue uptake at 24 h [3, 17] | tissue uptake at 24 h [3, 18] | tissue uptake at 24 h [3, 19] | tissue uptake per volume [4] | tissue uptake per volume at 1 h [4] | tissue uptake per volume at 24 h [4] | also measured |
| --- | --- | --- | --- | --- | --- | --- | --- | --- | --- | --- | --- | --- | --- | --- | --- | --- | --- | --- | --- | --- | --- |
| C[C@@H](O)[C@H](NC(=O)[C@@H]1CSSC[C@H](NC(=O)[C@@H](Cc2ccccc2)NC(=O)CN2CCN(CC(N)=O)CCN(CC(N)=O)CCN(CC(N)=O)CC2)C(=O)N[C@@H](Cc2ccc(O)cc2)C(=O)N[C@H](Cc2c[nH]c3ccccc23)C(=O)N[C@@H](CCCCN)C(=O)N[C@@H]([C@@H](C)O)C(=O)N1)C(=O)O [[^203Pb]Pb-DOTAM-TATE, metal not drawn, reference compound] | -1.41 ± 0.01 | > 97% |  |  |  |  |  |  |  |  |  |  |  |  |  |  |  |  |  |  | Tumor uptake (AR42J tumors; 1 h): 13 % ID/g; Uptake in kidneys (AR42J tumors; 24 h): ~ 13 % ID/g |
| C[C@@H](O)[C@H](NC(=O)[C@@H]1CSSC[C@H](NC(=O)[C@@H](Cc2ccccc2)NC(=O)[C@H]2CC[C@H](CNC(=O)CN3CCN(CC(N)=O)CCN(CC(N)=O)CCN(CC(N)=O)CC3)CC2)C(=O)N[C@@H](Cc2ccc(O)cc2)C(=O)N[C@H](Cc2c[nH]c3ccccc23)C(=O)N[C@@H](CCCCN)C(=O)N[C@@H]([C@@H](C)O)C(=O)N1)C(=O)O [[^203Pb]Pb-eSOMA-01, metal not drawn] | -1.99 ± 0.03 | > 97% | 0.05 ± 0.02 %ID/g | 0.27 ± 0.02 %ID/g | 0.05 ± 0.01 %ID/g | 7.44 ± 1.17 %ID/g | 0.34 ± 0.08 %ID/g | 0.86 ± 0.1 %ID/g | 0.36 ± 0.05 %ID/g | 0.18 ± 0.03 %ID/g | < 1 %ID/g | 0.12 ± 0.02 %ID/g | 0.03 ± 0.02 %ID/g | 0.12 ± 0.02 %ID/g | 0.22 ± 0.03 %ID/g | 0.75 ± 0.34 %ID/g | 2.89 ± 0.84 %ID/g | 3 to 4 %ID/mL | ~4 %ID/mL | 2 to 3 %ID/mL | half-life [4]: 14.7 ± 2.4 h |
| C[C@@H](O)[C@H](NC(=O)[C@@H]1CSSC[C@H](NC(=O)[C@@H](Cc2ccccc2)NC(=O)CN2CCC(NC(=O)CN3CCN(CC(N)=O)CCN(CC(N)=O)CCN(CC(N)=O)CC3)CC2)C(=O)N[C@@H](Cc2ccc(O)cc2)C(=O)N[C@H](Cc2c[nH]c3ccccc23)C(=O)N[C@@H](CCCCN)C(=O)N[C@@H]([C@@H](C)O)C(=O)N1)C(=O)O [[^203Pb]Pb-eSOMA-02, metal not drawn] | -1.88 ± 0.03 | > 97% | 0.17 ± 0.11 %ID/g | 0.67 ± 0.04 %ID/g | 0.09 ± 0.02 %ID/g | 12.6 ± 0.02 %ID/g | 0.41 ± 0.06 %ID/g | 1.11 ± 0.05 %ID/g | 0.53 ± 0.04 %ID/g | 0.04 ± 0.07 %ID/g | < 1 %ID/g | 0.83 ± 0.96 %ID/g | 0.43 ± 0.09 %ID/g | 0.24 ± 0.03 %ID/g | 0.61 ± 0.15 %ID/g | 0.67 ± 0.19 %ID/g | 2.54 ± 0.36 %ID/g | 3 to 4 %ID/mL | ~4 %ID/mL | 2 to 3 %ID/mL | More uptake in the kidneys compared to [203Pb]Pb-eSOMA-01 (H69 tumor bearing mice): around 41%; half-life [4]: 24.2 ± 4.5 h |
